Laboratory results from US20250049759A1, “PHARMACEUTICAL PREPARATION FOR ASSISTING IN PROMOTING SLEEP AND PREPARATION METHOD THEREOF” (Changde Jizhi Biological Technology Co., Ltd, priority 2023, published 2025).

Test system: Kunming mice
Experiment: Effects on sleep in mice: pentobarbital sodium of suprathreshold dose, sleep latency and duration
Assay type: in vivo
Conditions: gavage once a day for two consecutive weeks (diazepam 0.75 mg/kg; melatonin 75 mg/kg; embodiment/comparative raw material 3.5 g/kg), 50 mg/kg pentobarbital sodium i.p. 60 minutes after last administration, n=10
Text: • Test group 1: diazepam group. • Test group 2: melatonin group. • Test group 3: diazepam+embodiment 1 group. • Test group 4: diazepam+embodiment 4 group. • Test group 5: diazepam+embodiment 5 group. • Test group 6: diazepam+comparative example 1 group. • Test group 7: diazepam+comparative example 2 group.
Note: embodiments and comparative examples were concentrated and dried to obtain test raw materials.
Test animals: Kunming mice, 18-22 g. (specific pathogen free (SPF) grade, provided by the Pharmacology Department of Traditional Chinese Medicine, Beijing University of Chinese Medicine).
Test method: The mice were randomly divided into a control group and a test group. The test group 1: diazepam of 0.75 mg/kg was administrated by gavage once a day for two consecutive weeks. The test group 2: melatonin of 75 mg/kg was administrated by gavage once a day for two consecutive weeks. The test group 3 to test group 7: after administrating diazepam of 0.75 mg/kg by gavage, 3.5 g/kg of the raw material of the embodiment or comparative example is administrated once a day for two consecutive weeks. After 60 minutes of the last intragastric administration, the mice in each group were injected with 50 mg/kg pentobarbital sodium intraperitoneally, and the sleep latency and sleep duration of the mice in each group were recorded with the disappearance of righting reflex more than […] as the sleep standard.

## CN1C(=O)CN=C(c2ccccc2)c2cc(Cl)ccc21 [Test group 1, diazepam]
  Sleep duration: 126.37 ± 6.17 min
  Sleep latency: 2.47 ± 0.27 min

## COc1ccc2[nH]cc(CCNC(C)=O)c2c1 [Test group 2, melatonin]
  Sleep duration: 64.38 ± 3.70 min
  Sleep latency: 4.38 ± 0.35 min
